In patent publication EP0256125A1, “MEANS FOR PREVENTING MICROBIOLOGICAL OVERGROWING OF HARD SURFACE” (priority 1985, dated 1987):

Tests used:
[1] = prior art statement; cited from earlier work
[2] = Storage stability (qualitative); format: physicochemical; conditions: result in words
[3] = Solubility in solvents (qualitative); conditions: for Löslichkeit im Alkohol: Alkohol (Ethylalkohol)
weißen Mäusen = experiment: Acute toxicity in white mice
[4] = Acute toxicity in white mice; conditions: mouse, in vivo, ip
Acremonium corvum = experiment: Fungicidal activity, inhibition of mycelium growth on wort agar; format: cell-based
Description: (§1) Man prüfte die funguzide Aktivität von Zink-bis-(N-vi- nyloxyethyl)dithiocarbamat gegenüber den reinen Pilzkulturen: Gladosporium resinae, Cladosporium cladosporioides, Acremonium corvum, Acremonium charticola, Penicillium charlesii Smith, Walrotiela subiculesa, Geotrichum candidum Link, Oidium, Penicillium crysogenum. Die genannten Pilze wurden von den Oberflächen der Wände und Decken von Bierbrauereien und Werken für die Herstellung von alkoholfreien Getränken ausgeschieden.
(§2) […] In eine der Petri-Schalen wurde Nährboden mit 1 ml Azeton (Kontrolle) gegossen.
(§3) In 18 bis 20 Stunden nach dem Vergießen des Nährbodens in die Petri-Schalen führte man die Inokulation der reinen Pilzkultur durch, die vorher an einem Schräg-Würzeagar während 15 Tage gezüchtet wurden. Die Inkubation führte man bei einer Temperatur von 25 bis 27°C während 5 Tage durch. Danach wurde der Durchmesser der Pilzkolonien gemessen und der Prozentsatz der Hemmung des Wachstums des Myzeliums (S) nach der Abbott -Formel gezählt: [formula] worin dc Durchmesser der Pilzkolonien in Kontrolle ist, de =Durchmesser der Pilzkolonien in einer Schale mit dem Nährboden ist, der Zink-bis-(N-vinyloxyethyl)dithiocarbamat enthält.

Oidium = experiment: as above; format: cell-based
Description: as §1, §2, §3

Geotrichum candidum Link = experiment: as above; format: cell-based
Description: as §1, §2, §3

[5] = test system: Penicillium charlesii Smith; experiment: as above; format: cell-based
Description: as §1, §2, §3

[6] = test system: Cladosporium cladosporioides; experiment: as above; format: cell-based
Description: as §1, §2, §3

Penicillium chrysogenum = experiment: as above; format: cell-based
Description: as §1, §2, §3

Walrotiela subiculesa = experiment: as above; format: cell-based
Description: as §1, §2, §3

Acremonium charticola = experiment: as above; format: cell-based
Description: as §1, §2, §3

Cladosporium resinae = experiment: as above; format: cell-based
Description: as §1, §2, §3

[7] = test system: Schimmelpilzen, die die Bewachsung von Oberflächen hervorrufen; experiment: Fungicidal activity, summary over all tested fungi; format: cell-based; conditions: day 5
Description: as §1
Es wurden Lösungen des Zink-bis-(N-vinyloxyethyl)di- thiocarbamats im Azeton verschiedener Konzentration hergestellt, die so berechnet wurde, daß bei der Einführung vor 1 ml Lösung in 10 ml des geschmolzenen Würzeagars (45-50°C) die Konzentration des genannten Stoffes im Medium von 0,0015 bis 0,012% betrug. In eine der Petri-Schalen wurde Nährboden mit 1 ml Azeton (Kontrolle) gegossen.
as §3

p.Pseudomonas = experiment: Bactericidal activity, growth on agar medium; format: cell-based; conditions: 37°C, 5 Tage
Experimental: (§4) Die bakterizide Aktivität des Kalium N-(vinyloxyethyl)-dithiocarbamats gegenüber den Bakterien, die von der Oberfläche von Wänden und Decken der Produktionsräume von Brauereien und Fabriken zur Herstellunq von alkoholfreien Getränken ausgeschieden wurden und die zu p.p.Bacillus, Micrococcus, Pseudomonas, Escherichiae gehören, wurde geprüft.
(§5) Es wurden wäßrige Lösungen des genannten Stoffes verschiedener Konzentration hergestellt, die so berechnet wurde, daß bei Einführung von 1 ml der Lösung in 25 ml geschmolzenen agarisierten Nährboden (45-50°C) die Konzentration des Stoffes im Nährboden von 0,003 bis 0,5% betrug. In 18 bis 24 Stunden wurde auf die Oberfläche des Nährbodens 0,1 ml der wäßrigen Suspension der eintägigen reinen Bakterienkulturen aufgetragen, die am Fleisch-Pepton-Agar gezüchtet wurden. Die Suspension wurde gleichmäßig verteilt. In Kontrollschalen wurden 0,1 ml Wasser auf der Oberfläche des Närhbodens verteilt.
(§6) Die Inkubation führte man bei einer Temperatur von 37°C während 5 Tage durch.
(§7) Die effektive Wirkung des Stoffes wurde nach dem Auftreten des Bakterienwachstums an der Oberfläche des Nährbodens bewertet.

p. Escherichiae = experiment: Bactericidal activity, growth on agar medium; format: cell-based; conditions: 37°C, 5 Tage
Experimental: as §4, §5, §6, §7

p.Bacillus = experiment: Bactericidal activity, growth on agar medium; format: cell-based; conditions: 37°C, 5 Tage
Experimental: as §4, §5, §6, §7

p.Micrococcus = experiment: Bactericidal activity, growth on agar medium; format: cell-based; conditions: 37°C, 5 Tage
Experimental: as §4, §5, §6, §7

[8] = Konzentration des Stoffes 0,0015 %
[9] = Konzentration des Stoffes 0,003 %
[10] = Konzentration des Stoffes 0,006 %
[11] = Konzentration des Stoffes 0,012 %
[12] = Konzentration des Stoffes 0,1 % (0,10)
[13] = Konzentration des Stoffes 0,05 %
[14] = Konzentration des Stoffes 0,15 %

Molecule: CCCCCCCCn1sccc1=O [2-n-Oktyl-4-isothiazolinon-3]
- effektive Konzentration als Biozid für Lack- und Farbstoffe [1]: 0,4 Masse%

Molecule: C=COCCNC(=S)[S-].[Na+] [Natrium-N-(vinyloxyethyl)dithiocarbamat]
- Lagerbeständigkeit [2]: lagerbeständig
- Löslichkeit im Alkohol [3]: teilweise
- Löslichkeit im Azeton [3]: teilweise
- Löslichkeit im Diethylether [3]: unlöslich
- Löslichkeit in Wasser [3]: gut löslich
- Toxizität für Warmblüter (weißen Mäusen; result in words): wenig toxisch
- LD50 [4]: 260 mg/kg
- Hemmung des Myzeliums am 5. Tag des Wachstums, Acremonium corvum (Acremonium corvum; [8]): 100%
- Hemmung des Myzeliums am 5. Tag des Wachstums, Acremonium corvum (Acremonium corvum; [9]): 100%
- Hemmung des Myzeliums am 5. Tag des Wachstums, Acremonium corvum (Acremonium corvum; [10]): 100%
- Hemmung des Myzeliums am 5. Tag des Wachstums, Acremonium corvum (Acremonium corvum; [11]): 100%
- Hemmung des Myzeliums am 5. Tag des Wachstums, Oidium (Oidium; [8]): 60%
- Hemmung des Myzeliums am 5. Tag des Wachstums, Oidium (Oidium; [9]): 100%
- Hemmung des Myzeliums am 5. Tag des Wachstums, Oidium (Oidium; [10]): 100%
- Hemmung des Myzeliums am 5. Tag des Wachstums, Oidium (Oidium; [11]): 100%
- Hemmung des Myzeliums am 5. Tag des Wachstums, Geotrichum candidum Link (Geotrichum candidum Link; [8]): 5%
- Hemmung des Myzeliums am 5. Tag des Wachstums, Geotrichum candidum Link (Geotrichum candidum Link; [9]): 40%
- Hemmung des Myzeliums am 5. Tag des Wachstums, Geotrichum candidum Link (Geotrichum candidum Link; [10]): 75%
- Hemmung des Myzeliums am 5. Tag des Wachstums, Geotrichum candidum Link (Geotrichum candidum Link; [11]): 100%
- Hemmung des Myzeliums am 5. Tag des Wachstums, Penicillium charlesii Smith [5, 8]: 25%
- Hemmung des Myzeliums am 5. Tag des Wachstums, Penicillium charlesii Smith [5, 9]: 40%
- Hemmung des Myzeliums am 5. Tag des Wachstums, Penicillium charlesii Smith [5, 10]: 90%
- Hemmung des Myzeliums am 5. Tag des Wachstums, Penicillium charlesii Smith [5, 11]: 100%
- Hemmung des Myzeliums am 5. Tag des Wachstums, Cladosporium cladosporioides [6, 8]: 100%
- Hemmung des Myzeliums am 5. Tag des Wachstums, Cladosporium cladosporioides [6, 9]: 100%
- Hemmung des Myzeliums am 5. Tag des Wachstums, Cladosporium cladosporioides [6, 10]: 100%
- Hemmung des Myzeliums am 5. Tag des Wachstums, Cladosporium cladosporioides [6, 11]: 100%
- Hemmung des Myzeliums am 5. Tag des Wachstums, Penicillium chrysogenum (Penicillium chrysogenum; [8]): 5%
- Hemmung des Myzeliums am 5. Tag des Wachstums, Penicillium chrysogenum (Penicillium chrysogenum; [9]): 20%
- Hemmung des Myzeliums am 5. Tag des Wachstums, Penicillium chrysogenum (Penicillium chrysogenum; [10]): 80%
- Hemmung des Myzeliums am 5. Tag des Wachstums, Penicillium chrysogenum (Penicillium chrysogenum; [11]): 100%
- Hemmung des Myzeliums am 5. Tag des Wachstums, Walrotiela subiculesa (Walrotiela subiculesa; [8]): 100%
- Hemmung des Myzeliums am 5. Tag des Wachstums, Walrotiela subiculesa (Walrotiela subiculesa; [9]): 100%
- Hemmung des Myzeliums am 5. Tag des Wachstums, Walrotiela subiculesa (Walrotiela subiculesa; [10]): 100%
- Hemmung des Myzeliums am 5. Tag des Wachstums, Walrotiela subiculesa (Walrotiela subiculesa; [11]): 100%
- Hemmung des Myzeliums am 5. Tag des Wachstums, Acremonium charticola (Acremonium charticola; [8]): 100%
- Hemmung des Myzeliums am 5. Tag des Wachstums, Acremonium charticola (Acremonium charticola; [9]): 100%
- Hemmung des Myzeliums am 5. Tag des Wachstums, Acremonium charticola (Acremonium charticola; [10]): 100%
- Hemmung des Myzeliums am 5. Tag des Wachstums, Acremonium charticola (Acremonium charticola; [11]): 100%
- Hemmung des Myzeliums am 5. Tag des Wachstums, Cladosporium resinae (Cladosporium resinae; [8]): 100%
- Hemmung des Myzeliums am 5. Tag des Wachstums, Cladosporium resinae (Cladosporium resinae; [9]): 100%
- Hemmung des Myzeliums am 5. Tag des Wachstums, Cladosporium resinae (Cladosporium resinae; [10]): 100%
- Hemmung des Myzeliums am 5. Tag des Wachstums, Cladosporium resinae (Cladosporium resinae; [11]): 100%

Molecule: Kupfer-N-(vinyloxyethyl)dithiocarbamat
- Konzentration, bei der die Entwicklung aller untersuchten Pilze vollständig gehemmt wurde [7]: 0,15%
- Lagerbeständigkeit [2]: lagerbeständig
- Löslichkeit im Alkohol [3]: teilweise löslich
- Löslichkeit im Azeton [3]: teilweise löslich
- Löslichkeit im Diethylether [3]: unlöslich
- Löslichkeit im Dimethylsulfoxid ([3]; Dimethylsulfoxid): gut
- Löslichkeit in Wasser [3]: unlöslich
- LD50 (weißen Mäusen; intraabdominale Einführung bei weißen Mäusen): 267 mg/kg
- Konzentration der Salze der N-(vinyloxyethyl)dithiocarbaminsäure (100%), die das Wachstum der Bakterien am 5. Tag des Wachstums hemmen, p.Pseudomonas (p.Pseudomonas): 0,25%
- Konzentration der Salze der N-(vinyloxyethyl)dithiocarbaminsäure (100%), die das Wachstum der Bakterien am 5. Tag des Wachstums hemmen, p. Escherichiae (p. Escherichiae): 0,25%
- Konzentration der Salze der N-(vinyloxyethyl)dithiocarbaminsäure (100%), die das Wachstum der Bakterien am 5. Tag des Wachstums hemmen, p.Bacillus (p.Bacillus): 0,25%
- Konzentration der Salze der N-(vinyloxyethyl)dithiocarbaminsäure (100%), die das Wachstum der Bakterien am 5. Tag des Wachstums hemmen, p.Micrococcus (p.Micrococcus): 0,25%
- Hemmung des Myzeliums am 5. Tag des Wachstums, Acremonium corvum (Acremonium corvum; [12]): 100%
- Hemmung des Myzeliums am 5. Tag des Wachstums, Acremonium corvum (Acremonium corvum; [13]): 50%
- Hemmung des Myzeliums am 5. Tag des Wachstums, Acremonium corvum (Acremonium corvum; [14]): 100%
- Hemmung des Myzeliums am 5. Tag des Wachstums, Oidium (Oidium; Konzentration des Stoffes 0,1 %): 67%
- Hemmung des Myzeliums am 5. Tag des Wachstums, Oidium (Oidium; [13]): 0%
- Hemmung des Myzeliums am 5. Tag des Wachstums, Oidium (Oidium; [14]): 100%
- Hemmung des Myzeliums am 5. Tag des Wachstums, Geotrichum candidum Link (Geotrichum candidum Link; [12]): 50%
- Hemmung des Myzeliums am 5. Tag des Wachstums, Geotrichum candidum Link (Geotrichum candidum Link; [13]): 3%
- Hemmung des Myzeliums am 5. Tag des Wachstums, Geotrichum candidum Link (Geotrichum candidum Link; [14]): 100%
- Hemmung des Myzeliums am 5. Tag des Wachstums, Penicillium charlesii Smith [5, 12]: 56%
- Hemmung des Myzeliums am 5. Tag des Wachstums, Penicillium charlesii Smith [5, 13]: 24%
- Hemmung des Myzeliums am 5. Tag des Wachstums, Penicillium charlesii Smith [5, 14]: 92%
- Hemmung des Myzeliums am 5. Tag des Wachstums, Cladosporium cladosporioides [6, 12]: 100%
- Hemmung des Myzeliums am 5. Tag des Wachstums, Cladosporium cladosporioides [6, 13]: 45%
- Hemmung des Myzeliums am 5. Tag des Wachstums, Cladosporium cladosporioides [6, 14]: 100%
- Hemmung des Myzeliums am 5. Tag des Wachstums, Penicillium chrysogenum (Penicillium chrysogenum; [12]): 24%
- Hemmung des Myzeliums am 5. Tag des Wachstums, Penicillium chrysogenum (Penicillium chrysogenum; [13]): 4%
- Hemmung des Myzeliums am 5. Tag des Wachstums, Penicillium chrysogenum (Penicillium chrysogenum; [14]): 85%
- Hemmung des Myzeliums am 5. Tag des Wachstums, Walrotiela subiculesa (Walrotiela subiculesa; [12]): 100%
- Hemmung des Myzeliums am 5. Tag des Wachstums, Walrotiela subiculesa (Walrotiela subiculesa; [13]): 30%
- Hemmung des Myzeliums am 5. Tag des Wachstums, Walrotiela subiculesa (Walrotiela subiculesa; [14]): 100%
- Hemmung des Myzeliums am 5. Tag des Wachstums, Acremonium charticola (Acremonium charticola; [12]): 100%
- Hemmung des Myzeliums am 5. Tag des Wachstums, Acremonium charticola (Acremonium charticola; [13]): 43%
- Hemmung des Myzeliums am 5. Tag des Wachstums, Acremonium charticola (Acremonium charticola; [14]): 100%
- Hemmung des Myzeliums am 5. Tag des Wachstums, Cladosporium resinae (Cladosporium resinae; [12]): 43%
- Hemmung des Myzeliums am 5. Tag des Wachstums, Cladosporium resinae (Cladosporium resinae; [13]): 34%
- Hemmung des Myzeliums am 5. Tag des Wachstums, Cladosporium resinae (Cladosporium resinae; [14]): 100%
